{"source": "patent US7531194B2", "about": "“Plant extracts for the treatment of rheumatoid arthritis” (Development Center for Biotechnology, priority 2006, dated 2009)", "format_in_all_cases": "in vivo, Lewis rats", "key": {"IL-1β": {"system": "IL-1β", "test": "Abdominal cavity cell (PEC) culture, cytokine IL-1β, CIA rats fed PA crude extracts (Embodiment 2)", "details": "LPS 10 μg/ml, 24 hours, FIG. 8", "description": "(§1) The animal test scheme is shown as FIG. 2. Bovine collagen Type II (Bovine C II) was dissolved in 0.1 M acetic acid solution, stirred to dissolve thoroughly, and formulated into solutions with concentrations of 1.5 and 3 mg/ml, which were stored in 4° C. for later use. For the first immune injection, 100 μl of C II solution was emulsified with an equal amount of CFA, and injected subcutaneously (200 μl/rat) in the root portions of tails of the rats after the emulsification was complete. […] After about 15 days, the second immunization was done. 100 μl of C II solution was emulsified with an equal amount of IFA, and injected subcutaneously (200 μl/rat) in the root portions of tails of the rats after the emulsification was complete. Approximately from Day 20, the symptoms of arthritis were observed (CIA rats), and PA and indomethacin were fed until Day 45. [table] 1. After carbon dioxide euthanasia, the outer furs of the rat abdominal cavity were cut out by scissors, to expose the whole abdominal cavity. 2. HBSS buffer was injected into the abdominal cavity batch-wise by a 10 ml syringe to make a total volume of about 20 ml/rat. 3. The abdominal cavity of the rat was opened after the abdomen was gently kneaded. An incision of about 2 cm was made in the abdominal cavity by using scissors. […] The concentrations of cytokine TNF-α, IL-6, and IL-1β were analyzed by using ELISA kit."}, "IL-6": {"system": "IL-6", "test": "Abdominal cavity cell (PEC) culture, cytokine IL-6, CIA rats fed PA crude extracts (Embodiment 2)", "details": "LPS 10 μg/ml, 24 hours, FIG. 9", "description": "as §1"}, "C-reactive protein (CRP)": {"system": "C-reactive protein (CRP)", "test": "Serum C-reactive protein (CRP) analysis of CIA rats fed PA crude extracts (Embodiment 2)", "description": "The animal test scheme is shown as FIG. 2. Bovine collagen Type II (Bovine C II) was dissolved in 0.1 M acetic acid solution, stirred to dissolve thoroughly, and formulated into solutions with concentrations of 1.5 and 3 mg/ml, which were stored in 4° C. for later use. For the first immune injection, 100 μl of C II solution was emulsified with an equal amount of CFA, and injected subcutaneously (200 μl/rat) in the root portions of tails of the rats after the emulsification was complete. […] After about 15 days, the second immunization was done. 100 μl of C II solution was emulsified with an equal amount of IFA, and injected subcutaneously (200 μl/rat) in the root portions of tails of the rats after the emulsification was complete. Approximately from Day 20, the symptoms of arthritis were observed (CIA rats), and PA and indomethacin were fed until Day 45. [table] 1. CRP ELISA kit was a pre-coated microplate, into which 0.1 ml of appropriately diluted serum sample could be added directly. After being reacted for 1 hour at room temperature, it was washed by the washing buffer four times. 2. Rabbit anti-rat C-reactive protein (CRP) was combined with HRP Ab, diluted with the washing buffer 100 times, and then 0.1 ml was added into each well. […] Finally, O.D value was read out at the wavelength of 450 nm. […]"}, "Rheumatoid factor (RF)": {"system": "Rheumatoid factor (RF)", "test": "Serum RF analysis of CIA rats fed PA crude extracts (Embodiment 2)", "description": "The animal test scheme is shown as FIG. 2. Bovine collagen Type II (Bovine C II) was dissolved in 0.1 M acetic acid solution, stirred to dissolve thoroughly, and formulated into solutions with concentrations of 1.5 and 3 mg/ml, which were stored in 4° C. for later use. For the first immune injection, 100 μl of C II solution was emulsified with an equal amount of CFA, and injected subcutaneously (200 μl/rat) in the root portions of tails of the rats after the emulsification was complete. […] After about 15 days, the second immunization was done. 100 μl of C II solution was emulsified with an equal amount of IFA, and injected subcutaneously (200 μl/rat) in the root portions of tails of the rats after the emulsification was complete. Approximately from Day 20, the symptoms of arthritis were observed (CIA rats), and PA and indomethacin were fed until Day 45. [table] 1. Collagen was formulated in a coating buffer to a concentration of 40 μg/ml, 0.1 ml of which was added into a 96-well micro plate respectively, and was kept in 4° C. overnight. 2. After washing with Tris buffer three times, 0.2 ml of blocking buffer containing 1% BSA was added into each well. The reaction lasted for 2 hours at room temperature, and then was washed by Tris buffer three times again. 3. […] Finally, absorption (O.D) value was read out at the wavelength of 450 nm."}}}
{"smiles": "COc1ccc2c(c1)c(CC(=O)O)c(C)n2C(=O)c1ccc(Cl)cc1", "note": "[indomethacin, Indomethacin]", "values": [{"measurement": "inhibition of PEC secreting IL-1β", "setting": "IL-1β", "value": "no effect of inhibiting PEC from secreting inflammatory cytokine"}, {"measurement": "inhibition of PEC secreting IL-6", "setting": "IL-6", "value": "no effect of inhibiting PEC from secreting inflammatory cytokine"}, {"measurement": "effect on serum CRP concentration", "setting": "C-reactive protein (CRP); Day 35, PA-H 375, PA-L 75, indomethacin 2.5 mg/kg/day, FIG. 7", "value": "efficiently inhibited"}, {"measurement": "effect on serum CRP concentration", "setting": "C-reactive protein (CRP); Day 45, FIG. 7", "value": "same effects still exist"}, {"measurement": "reduction of serum RF value", "setting": "Rheumatoid factor (RF); Day 35 compared with Day 20, FIG. 6", "value": 47, "unit": "%"}, {"measurement": "reduction of serum RF value", "setting": "Rheumatoid factor (RF); Day 45 compared with Day 20, FIG. 6", "value": 51, "unit": "%"}]}
